# Patent US9480259B2, “Pyrazolopyrans having herbicidal and pharmaceutical properties” (BASF SE, priority 2012, dated 2016)
# pEC50: −log10 of the molar value.
# Biological target: Arabidopsis thaliana SHMT
# Assay: SHMT activity assay (ED50 SHMT), coupled with N5,N10-CH2-THF dehydrogenase, NADH at 340 nm
# Format: biochemical
# Settings: Arabidopsis thaliana SHMT enzyme assay; values given as upper bounds
# Experimental: Determination of the ED50 SHMT was carried out as described hereinunder.
# Purification of Arabidopsis thaliana SHMT
# The following buffers were used during the purification protocol:
# Buffer A (Lysis and Wash Buffer): • 20 mM Na-Phosphat (pH 7,4) • 500 mM NaCI • 40 mM Imidazole • 1.0 mM L-Serine • 0.5 mM Pyridoxal-5-phosphate • 0.5 mM DTT
# Buffer B (Elution Buffer): • 20 mM Na-Phosphat (pH 7,4) • 500 mM NaCl • 250 mM Imidazole • 1.0 mM L-Serine • 0.5 mM Pyridoxal-5-phosphate • 0.5 mM DTT
# All procedures were conducted at 4° C. or on ice. Pellets were suspended in Buffer A containing 1 mg/ml DNAse +Complete EDTA-free protease inhibitor tablet. Cells were lysed using sonication or a French Press device, using standard settings. Lysis was centrifuged at 40000×g for 25 minutes. The supernatant was filtered (0.22 μM) before loading onto a Ni-NTA column.
# A gravity flow column containing Ni-NTA resin was equilibrated with 10 CV Buffer A and loaded with filtered cell lysate. The column was then washed with 10 CV Buffer A. Elution was afforded using Buffer B and collected manually as mini-factions. EDTA was added after elution to a final concentration of 1 mM. Fractions were pooled on the basis of the correct band for SHMT visualised via SDS-PAGE and staining.
# SHMT Assay Buffer: • 50 mM KH2PO4 (pH 7,4) • 2.0 mM NAD+ • 7.5 mM DTT • 0.3 mM Tetrahydrofolic acid • 4% DMSO
# Reaction Start: 20 mM L-Serine
# The rate of N5,N10-CH2-THF formation catalyzed by SHMT was monitored at 340 nm by coupling with excess N5,N10-CH2-THF dehydrogenase, which converts NAD+to NADH. Reactions were initiated by adding 20 mM L-Serine. Inhibition of initial velocity was determined by adding various inhibitors of the SHMT reaction and monitored as described. Reactions were measured in a Bio Tek micro titer plate reader following the change in absorption with the formation of NADH for 30 mimnutes.
row,SMILES,pEC50
1,Cc1n[nH]c2c1C(c1cc(C#N)cc(-c3cc(C(=O)O)co3)c1)(C1CCC1)C(C#N)=C(N)O2 (stereo not drawn) [Compound 2.684],> 8.00
2,Cc1n[nH]c2c1C(c1cc(C#N)cc(N(C)S(=O)(=O)CC(=O)O)c1)(C1CCC1)C(C#N)=C(N)O2 (stereo not drawn) [Compound 2.731],> 7.00
3,Cc1n[nH]c2c1C(c1cc(C#N)cc(N(C)C(=O)Cc3nnn[nH]3)c1)(C(C)C)C(C#N)=C(N)O2 (stereo not drawn) [Compound 2.721],> 7.00
4,Cc1n[nH]c2c1C(c1cc(Cl)cc(SCc3nnn[nH]3)c1)(C1CCC1)C(C#N)=C(N)O2 (stereo not drawn) [Compound 2.667],> 8.00
5,Cc1n[nH]c2c1C(c1cc(C#N)cc(N(C)C(=O)CCCC(=O)O)c1)(C(C)C)C(C#N)=C(N)O2 (stereo not drawn) [Compound 2.694],> 8.00
6,Cc1n[nH]c2c1C(c1cc(C#N)cc(-c3cc(C(=O)O)cs3)c1)(C(C)C)C(C#N)=C(N)O2 (stereo not drawn) [Compound 2.686],> 7.00
7,Cc1n[nH]c2c1C(c1cc(CN)cc(N(C)C(=O)CCCC(=O)O)c1)(C(C)C)C(C#N)=C(N)O2 (stereo not drawn) [Compound 2.689],> 6.00
8,Cc1n[nH]c2c1C(c1cc(C#N)cc(-c3cc(C(=O)O)cs3)c1)(C1CCC1)C(C#N)=C(N)O2 (stereo not drawn) [Compound 2.683],> 8.00
9,COC(=O)c1csc(-c2cc(C#N)cc(C3(C4CCC4)C(C#N)=C(N)Oc4[nH]nc(C)c43)c2)c1 (stereo not drawn) [Compound 2.682],> 8.00

# Same assay, conditions: Table 2, Arabidopsis thaliana SHMT enzyme assay; values given as upper bounds
row,SMILES,pEC50
1,Cc1n[nH]c2c1C(c1cc(Cl)cc(Oc3ccc(Cl)cc3)c1)(C1CC1)C(C#N)=C(N)O2 (racemic) [Compound 2.342],> 8.00
2,Cc1n[nH]c2c1C(c1cccc(OC(F)F)c1)(C1CCC1)C(C#N)=C(N)O2 (stereo not drawn) [Compound 2.264],> 8.00
3,Cc1n[nH]c2c1C(c1cc(Cl)cc(I)c1)(C1CCC1)C(C#N)=C(N)O2 (stereo not drawn) [Compound 2.299],> 8.00
4,N#CC1=C(N)Oc2[nH]ncc2C1(c1cc(Cl)cc(Cl)c1)C1(F)CCC1 (stereo not drawn) [Compound 2.288],> 7.00
5,Cc1n[nH]c2c1C(c1cc(Cl)cc(Oc3cccc(C(F)(F)F)c3)c1)(C1CCC1)C(C#N)=C(N)O2 (stereo not drawn) [Compound 2.234],> 8.00
6,Cc1n[nH]c2c1C(c1cc(Cl)cc(Cl)c1)(C1CC1(F)F)C(C#N)=C(N)O2 (stereo not drawn) [Compound 2.270],> 8.00
7,Cc1n[nH]c2c1C(c1cc(C#N)cc(-c3cccc(F)c3)c1)(C1CCC1)C(C#N)=C(N)O2 (stereo not drawn) [Compound 2.327],> 8.00
8,COc1ccc(C2(C3(F)CC3)C(C#N)=C(N)Oc3[nH]nc(C)c32)cc1C(F)(F)F (stereo not drawn) [Compound 2.267],> 8.00
9,Cc1n[nH]c2c1C(c1ccc(OC(F)(F)F)c(Cl)c1)(C1CCC1)C(C#N)=C(N)O2 (stereo not drawn) [Compound 2.303],> 8.00
10,Cc1n[nH]c2c1C(c1cc(Cl)cc(-c3cccs3)c1)(C1CCC1)C(C#N)=C(N)O2 (stereo not drawn) [Compound 2.263],> 8.00
11,COc1ccc(C2(C(C)C)C(C#N)=C(N)Oc3[nH]nc(C)c32)cc1Br (stereo not drawn) [Compound 2.222],> 8.00
12,Cc1n[nH]c2c1C(c1ccc(N3CCCC3)c(Cl)c1)(C1CCC1)C(C#N)=C(N)O2 (stereo not drawn) [Compound 2.268],> 8.00

# Same assay, conditions: Table 2; values given as upper bounds
row,SMILES,pEC50
1,CCC1(c2cc(Cl)cc(Cl)c2)C(C#N)=C(N)Oc2[nH]nc(C)c21 (stereo not drawn) [Compound 2.12.],> 7.00
2,Cc1n[nH]c2c1C(c1cc(Cl)cc(Cl)c1)(C1CCCC1)C(C#N)=C(N)O2 (stereo not drawn) [Compound 2.199.],> 6.00
3,Cc1n[nH]c2c1C(c1cc(Cl)cc(Br)c1)(C1CCC1)C(C#N)=C(N)O2 (stereo not drawn) [Compound 2.207.],> 8.00
4,CCC1(c2cc(Cl)cc(C#N)c2)C(C#N)=C(N)Oc2[nH]nc(C)c21 (stereo not drawn) [Compound 2.529],> 8.00
5,CCC1(c2cccc(-c3ccccc3)c2)C(C#N)=C(N)Oc2[nH]nc(C)c21 (stereo not drawn) [Compound 2.35.],> 6.00
6,Cc1n[nH]c2c1C(CC(C)C)(c1cc(C(F)(F)F)cc(C(F)(F)F)c1)C(C#N)=C(N)O2 (stereo not drawn) [Compound 2.108.],> 7.00
7,COC(=O)CCc1cccc(-c2cc(C#N)cc(C3(C4CCC4)C(C#N)=C(N)Oc4[nH]nc(C)c43)c2)c1 (stereo not drawn) [Compound 2.525],> 8.00
8,CCC1(c2cc(Br)cc(C#N)c2)C(C#N)=C(N)Oc2[nH]nc(C(F)F)c21 (stereo not drawn) [Compound 2.607],> 8.00
9,Cc1n[nH]c2c1C(c1cc(Cl)cc(Oc3ccc(F)cc3)c1)(C1CCC1)C(C#N)=C(N)O2 (stereo not drawn) [Compound 2.201.],> 7.00
10,CCC1(c2ccc(OS(=O)(=O)CC)cc2)C(C#N)=C(N)Oc2[nH]nc(C)c21 (stereo not drawn) [Compound 2.26.],> 5.00
11,Cc1n[nH]c2c1C(c1cc(C#N)cc(N3CCCC3=O)c1)(C1(F)CC1)C(C#N)=C(N)O2 (stereo not drawn) [Compound 2.452],> 6.00
12,CCC1(c2cc(Cl)cc(C#N)c2)C(C#N)=C(N)Oc2[nH]nc(C(C)C)c21 (stereo not drawn) [Compound 2.580],> 7.00
13,Cc1n[nH]c2c1C(c1cc(C#N)cc(-c3ccc(C(=O)O)c(F)c3)c1)(C1CCC1)C(C#N)=C(N)O2 (stereo not drawn) [Compound 2.560],> 8.00
14,Cc1n[nH]c2c1C(c1cc(Cl)c(O)c(C#N)c1)(C1CCC1)C(C#N)=C(N)O2 (stereo not drawn) [Compound 2.567],> 7.00
15,Cc1n[nH]c2c1C(c1cc(Cl)cc(-c3ccc(-c4nnn[nH]4)cc3)c1)(C1CCC1)C(C#N)=C(N)O2 (stereo not drawn) [Compound 2.493],> 8.00
16,CCC1(c2ccc(OS(=O)(=O)c3ccc(Cl)cc3)c(C)c2)C(C#N)=C(N)Oc2[nH]nc(C)c21 (stereo not drawn) [Compound 2.57.],> 5.00
17,CCC1(c2ccc(Cl)c(Cl)c2)C(C#N)=C(N)Oc2[nH]nc(C)c21 (stereo not drawn) [Compound 2.14.],> 7.00

row,SMILES,pEC50
1,Cc1n[nH]c2c1C(CC(C)C)(c1cc(Cl)cc(Cl)c1)C(C#N)=C(N)O2 (stereo not drawn) [Compound 2.125.],> 7.00
2,N#CC1=C(N)Oc2[nH]nc(C3CC3)c2C1(c1ccc(Cl)cc1)C1CC1 (stereo not drawn) [Compound 2.129.],> 5.00
3,COC(=O)c1cc(-c2cc(C#N)cc(C3(C4CCC4)C(C#N)=C(N)Oc4[nH]nc(C)c43)c2)ccc1Cl (stereo not drawn) [Compound 2.509],> 8.00
4,CCC1(c2ccc(F)c(Cl)c2)C(C#N)=C(N)Oc2[nH]nc(C)c21 (stereo not drawn) [Compound 2.19.],> 7.00
5,CCOC(=O)COc1ccc(C2(CC)C(C#N)=C(N)Oc3[nH]nc(C)c32)cc1[N+](=O)[O-] (racemic) [Compound 2.43.],> 6.00
6,Cc1n[nH]c2c1C(c1cc(Cl)cc(Oc3ccccc3)c1)(C1CC1)C(C#N)=C(N)O2 (stereo not drawn) [Compound 2.153.],> 7.00
7,Cc1n[nH]c2c1C(c1cc(C#N)cc(-c3cccc(C(=O)O)c3)c1)(C1(F)CC1)C(C#N)=C(N)O2 (stereo not drawn) [Compound 2.510],> 8.00
8,COc1ccc(C2(C3CC3)C(C#N)=C(N)Oc3[nH]nc(C)c32)cc1C(F)(F)F (stereo not drawn) [Compound 2.150.],> 7.00
9,COc1ccc(C2(C(C)C)C(C#N)=C(N)Oc3[nH]nc(C)c32)cc1C(F)(F)F (stereo not drawn) [Compound 2.144.],> 8.00
10,Cc1n[nH]c2c1C(c1cc(Cl)cc(Oc3cccc(F)c3)c1)(C1CCC1)C(C#N)=C(N)O2 (stereo not drawn) [Compound 2.200.],> 7.00
11,Cc1n[nH]c2c1C(c1cc(Cl)cc(Cl)c1)(C(F)(F)F)C(C#N)=C(N)O2 (stereo not drawn) [Compound 2.88.],> 6.00
12,CCc1n[nH]c2c1C(CC)(c1cc(C#N)cc(C(F)(F)F)c1)C(C#N)=C(N)O2 (stereo not drawn) [Compound 2.574],> 8.00
13,Cc1n[nH]c2c1C(c1cccc(C#N)c1)(C1CCC1)C(C#N)=C(N)O2 (stereo not drawn) [Compound 2.192.],> 7.00
14,Cc1n[nH]c2c1C(c1cccc(C(F)(F)F)c1)(C(F)(F)F)C(C#N)=C(N)O2 (stereo not drawn) [Compound 2.95.],> 6.00
15,CCCC1(c2cc(Br)cc(C#N)c2)C(C#N)=C(N)Oc2[nH]nc(CC)c21 (stereo not drawn) [Compound 2.578],> 7.00
16,Cc1n[nH]c2c1C(c1cc(Cl)cc(Cl)c1)(C(C)C)C(C#N)=C(N)O2 (stereo not drawn) [Compound 2.112.],> 8.00

# Same assay, conditions: inhibition of initial velocity of Arabidopsis thaliana SHMT
row,SMILES,pEC50
1,Cc1n[nH]c2c1C(c1ccc(-c3cccc(C(F)(F)F)c3)s1)(C1CC1)C(C#N)=C(N)O2 (stereo not drawn) [Compound 4.53],> 7.00
2,Cc1n[nH]c2c1C(c1cc3cc(Cl)ccc3s1)(C1CCC1)C(C#N)=C(N)O2 (stereo not drawn) [Compound 4.9],> 8.00
3,COC(=O)c1csc(C2(C3CCC3)C(C#N)=C(N)Oc3[nH]nc(C)c32)c1 (stereo not drawn) [Compound 4.30],> 8.00
4,Cc1n[nH]c2c1C(c1nc3ccc(Cl)cc3o1)(C1CCC1)C(C#N)=C(N)O2 (stereo not drawn) [Compound 4.37],> 8.00
5,Cc1n[nH]c2c1C(c1ccc3[nH]c(C(F)(F)F)nc3c1)(C1CCC1)C(C#N)=C(N)O2 (stereo not drawn) [Compound 4.48],> 7.00
6,Cc1n[nH]c2c1C(c1cc3ccccc3o1)(C1CCC1)C(C#N)=C(N)O2 (stereo not drawn) [Compound 4.52],> 7.00
7,Cc1n[nH]c2c1C(c1cc(F)c3c(c1)C=CC(C)(C)O3)(C1CCC1)C(C#N)=C(N)O2 (stereo not drawn) [Compound 4.23],> 8.00
8,Cc1n[nH]c2c1C(c1ccc3c(c1)nnn3C(C)C)(C1CCC1)C(C#N)=C(N)O2 (stereo not drawn) [Compound 4.42],> 8.00
9,CCC1(c2ccc3[nH]c(=O)oc3c2)C(C#N)=C(N)Oc2[nH]nc(C)c21 (stereo not drawn) [Compound 4.72],> 6.00
